For data set [1], the system named is spleen T lymphocyte subpopulations. The experiment in a line: Spleen T lymphocyte subpopulations by direct immunofluorescence after treatment of mice. The conditions noted are these: 160 mg/kg/day in the drinking water for 4 days. It counts as in vivo, C57B1/6 mice. Here is the method: C57B1/6 mice were given Linomide® (160 mg/kg/day) in the drinking water for 4 days. Control animals were given ordinary drinking water. […] 134:3956, 1985] and examined for the expression of cell surface markers by direct immunofluorescence. The following FITC-labeled monoclonal antibodies were used: HO-134 (Thy 1.2), GK 1.5 (CD4) and 19. 178c (CD8) [for reference to antibodies see Kalland, T.: Regulation of NK progenitors: Studies with a novel immunmodulator with distinct effects at the precursor level, J. Immunol. 144:4472-6, 1990]. The number of positive cells was determined by counting 400 cells in an epifluoroscence equipped Leitz microscope. Values represent mean ± SD of three mice.

Data set [2] can be described thus: Half life in mice. It counts as in vivo.
Data set [3] is described as follows: Half life in cynomolgus monkeys. It counts as in vivo.
The nature of data set [4]: Half life in rats. Particulars: rat, in vivo.
A short description of data set [5]: Half life in humans. The conditions noted are these: human, in vivo.
Data set [6] has as its system YAC-1 cells. Nature of the data set: Spleen NK activity, conventional 51Cr-release assay after treatment of mice. Particulars: 160 mg/kg/day in the drinking water for four days; for % CYTOTOXICITY: 3 mice.
The subject of data set [7] is SIVsm. Nature of the data set: SIVsm infection of cynomolgus monkeys (body weight, CD4 cells, virus isolation, clinical state). Particulars: result in words.
Text: Nine cynomolgus monkeys (Macaca Fascicularis) were used in this study. The mean body mass was 2600 g and the range was 2260 to 2930 g. The monkeys were housed in single cages in a biosafety level three facility. […] The absence of pre-existing retrovirus was further investigated by cocultivating monkey PBMC (=peripheral blood mononuclear cells) with human PHA-stimulated PBMC and testing of culture supernatants for reverse transcriptase activity.
Intraperitoneal treatment with Linomide® or NaCl started four days before challenge with live virus and subsequently every day (not during weekends) subcutaneosly during the time of follow-up. The follow-up is 75 days after live virus challenge. Monkeys L1-3 were treated with a low dose Linomide® 0.3 mg/kg bw x 2 Monkeys L4-6 were treated with a high dose Linomide® 3 mg/kg bw x 2 Monkeys L7-9 were given sodium chloride x 2 All monkeys were challenged with 10-100 animal ID₅₀ of live SIVsm. Animals were sacrificed when they became moribund.
T-lymphocyte subsets in peripheral blood were determined by immunofluorescence as previously described [Putkonen, P., Warstedt, K., Thorstensson, R., Benthin, R., Albert, J., Lundgren, B., Öberg, B., Norrby, E., Biberfeld, G.: Experimental infection of cynomolgus monkeys (Macaca Fascicularis with simian immunodeficiency virus (SIVsm), J. AIDS 1989:2, 359-365]. Peripheral blood samples were incubated with FITC-conjugated anti-CD4 (OKT4, Ortho) and anti-CD8 (Leu2, Becton Dickinson). The samples were analyzed in a Spectrum III flow cytometer (Ortho Diagnostics).
[8] abbreviates: spleen cells, mean ± SD of three mice.

As a reminder, the half-life is the time needed for the level to fall by half in the phase considered. Take `CN(C(=O)c1c(O)c2ccccc2n(C)c1=O)c1ccccc1` [Linomide®, N-phenyl-N-methyl-1,2-dihydro-4-hydroxy-1-methyl-2-oxo-quinoline-3-carboxamide]: the “% Fluorescent cells CD4” value in data set [1] (setting [8]) was found to be 28±2%. Also, the “% Fluorescent cells CD8” value in data set [1] (setting [8]) is listed as 10±3%. The “% Fluorescent cells Thy 1.2” value in data set [1] (setting [8]) stood at 42±5%. Also, the “distribution of T lymphocyte subpopulations” value in data set [1] (result in words) is recorded as “do not significantly altler the distribution of T lymphocyte subpopulations”. Further, the figures for the half life entry in data set [2] and in data set [3] were “two” and “six”, respectively. In addition, the half-life in data set [4] is 24 h; in data set [5] it was ~48 h. Besides, the “% CYTOTOXICITY” value in data set [6] (Effector cell: Target cell ratio 25:1) stood at 14±4%; in data set [6] (Effector cell: Target cell ratio 50:1), 20±4%; in data set [6] (Effector cell: Target cell ratio 100:1), 29±5%. Moreover, the NK activity result in data set [6] (result in words) is recorded as “significantly enhances NK activity”. In addition, in data set [7] (all monkeys (low dose, high dose and control), 14 days after challenge), the “qualitative virus isolation assay” value is on record as “virus could be isolated from all monkeys”. In addition, the body weight result in data set [7] (high dose group (3 mg/kg bw x 2), one monkey) is “dramatic reduction in body weight”; in data set [7] (monkeys L1-3, 0.6 mg/kg/day) it was “Only a slight weight reduction”. In addition, the “percentage of CD4⁺ cells in peripheral blood” value in data set [7] (low dose (0.3 mg/kg bw x 2)) was “essentially unaltered”. In addition, the clinical condition result in data set [7] (monkeys L1-3 = low dose (0.3 mg/kg bw x 2)) is recorded as “remained clinically healthy”.
